Source: ChEMBL document CHEMBL4665834 (J Med Chem, 2020)
Converted amounts (≈) assume the structure as drawn. The source made the active and inactive calls. No cut-off for these calls is given here.

Columns and labels:
[1] = Solubility of compound in water using crystalline form of sample; assay type: physicochemical
[2] = Relative oral bioavailability in Wistar rat at 1 to 3 mg/kg administered via gavage in 99.5% water, 0.5% Tylose and TRIS salt formulation by LC-MS/MS analysis; assay type: ADME, organism-based; settings: in vivo, dose 1-3 mg/kg
[3] = Clearance in Wistar rat at 0.3 to 1 mg/kg, iv administered as bolus dose by LC-MS/MS analysis; assay type: ADME, organism-based; settings: in vivo, dose 0.3-1 mg/kg
[4] = Efflux ratio of apparent permeability across basolateral to apical side over apical to basolateral side in human Caco-2 cells measured after 2 hrs by HPLC analysis; assay type: ADME, cell-based
[5] = species: Homo sapiens; test: Selectivity ratio of IC50 for displacement of [3H]prostaglandin E2 from full-length recombinant human EP4 receptor expressed in Chem-1 cell membranes to IC50 for displacement of [3H]PGF2alpha from full-length recombinant human FP receptor expressed in HEK293 cell membranes
[6] = target: T1, Prostaglandin F2-alpha receptor (Homo sapiens, UniProt P43088); test: Antagonist activity at human FPR expressed in human Chem-1 cells assessed as inhibition of PGF2alpha-induced calcium flux preincubated for 10 mins followed by PGF2alpha stimulation and measured for 120 secs by fluo-8 AM dye based fluorescence assay; assay type: functional, cell-based
[7] = Solubility of compound at pH 1 to 7 using crystalline form of sample; assay type: physicochemical
[8] = Half life in Wistar rat at 0.3 to 1 mg/kg, iv administered as bolus dose by LC-MS/MS analysis; assay type: ADME, organism-based; settings: in vivo, dose 0.3-1 mg/kg
[9] = Oral bioavailability in Wistar rat at 1 to 3 mg/kg administered via gavage using EtOH/PEG400/H2O 10/40/50 formulation by LC-MS/MS analysis; assay type: ADME, organism-based; settings: in vivo, dose 1-3 mg/kg
[10] = Clearance in Wistar rat at 0.3 to 1 mg/kg, iv administered as bolus dose or 15 mins infusion by LC-MS/MS analysis; assay type: ADME, organism-based; settings: in vivo, dose 0.3-1 mg/kg; for clearance: Wistar
[11] = target: Cytochrome P450 3A4 (Homo sapiens, UniProt P08684); test: Inhibition of CYP3A4 in human liver microsomes using midazolam as substrate incubated for 10 mins in presence of NADPH generating system by LC-MS/MS analysis
[12] = Protein binding in pooled human plasma assessed as unbound fraction incubated for 6 hrs by LC-MS/MS analysis based equilibrium dialysis method; assay type: ADME, cell-free
[13] = Lipophilicity, log D of compound at pH 7.5 by HPLC analysis; settings: buffer
[14] = Relative oral bioavailability in Wistar rat at 1 to 3 mg/kg administered via gavage using crystalline form of sample in sodium salt formulation by LC-MS/MS analysis; assay type: ADME, organism-based; settings: in vivo, dose 1-3 mg/kg
[15] = Clearance in Wistar rat hepatocytes assessed as extrapolated blood clearance at 1 uM measured after 2 to 90 mins by LC-MS/MS analysis; assay type: ADME, cell-based, Hepatocyte; settings: time 2-90 min
[16] = target: Cytochrome P450 2D6 (Homo sapiens, UniProt P10635); test: Inhibition of CYP2D6 in human liver microsomes using dextromethorphan as substrate incubated for 15 mins in presence of NADPH generating system by LC-MS/MS analysis; assay type: ADME
[17] = target: Cytochrome P450 2C9 (Homo sapiens, UniProt P11712); test: Inhibition of CYP2C9 in human liver microsomes using diclofenac as substrate incubated for 15 mins in presence of NADPH generating system by LC-MS/MS analysis; assay type: ADME
[18] = target: Cytochrome P450 2C8 (Homo sapiens, UniProt P10632); test: Inhibition of CYP2C8 in human liver microsomes using amodiaquine as substrate incubated for 15 mins in presence of NADPH generating system by LC-MS/MS analysis; assay type: ADME
[19] = target: Cytochrome P450 1A2 (Homo sapiens, UniProt P05177); test: Inhibition of CYP1A2 in human liver microsomes using phenacetin as substrate incubated for 15 mins in presence of NADPH generating system by LC-MS/MS analysis; assay type: ADME
[20] = Oral bioavailability in Wistar rat at 1 to 3 mg/kg administered via gavage using EtOH/PEG400/H2O/DMSO 8/40/50/2 formulation by LC-MS/MS analysis; assay type: ADME, organism-based; settings: in vivo, dose 1-3 mg/kg
[21] = target: Prostacyclin receptor (Homo sapiens, UniProt P43119); test: Displacement of [3H]PGD2 from full-length recombinant human IP receptor expressed in HEK293 cell membranes measured after 60 mins by scintillation counting method
[22] = target: Prostaglandin D2 receptor (Homo sapiens) (UniProt Q13258); test: Displacement of [3H]PGD2 from full-length recombinant human DP1 receptor expressed in Chem-1 cell membranes measured after 120 mins by scintillation counting method
[23] = target: Prostaglandin E2 receptor EP4 subtype (Homo sapiens, UniProt P35408); test: Displacement of [3H]prostaglandin E2 from full-length recombinant human EP4 receptor expressed in HEK293 cell membranes measured after 120 mins by scintillation counting method
[24] = target: Prostaglandin E2 receptor EP3 subtype (Homo sapiens) (UniProt P43115); test: Displacement of [3H]prostaglandin E2 from full-length recombinant human EP3 receptor expressed in HEK293 cell membranes measured after 120 mins by scintillation counting method
[25] = target: Prostaglandin E2 receptor EP2 subtype (Homo sapiens, UniProt P43116); test: Displacement of [3H]prostaglandin E2 from full-length recombinant human EP2 receptor expressed in HEK293 cell membranes measured after 120 mins by scintillation counting method
[26] = target: Prostaglandin E2 receptor EP1 subtype (Homo sapiens) (UniProt P34995); test: Displacement of [3H]prostaglandin E2 from full-length recombinant human EP1 receptor expressed in HEK293 cell membranes measured after 60 mins by scintillation counting method
[27] = target: T1, Prostaglandin F2-alpha receptor; test: Displacement of [3H]PGF2alpha from full-length recombinant human FP receptor expressed in HEK293 cell membranes measured after 60 mins by scintillation counting method
[28] = species: Homo sapiens; test: Selectivity ratio of IC50 for displacement of [3H]PGD2 from full-length recombinant human IP receptor expressed in HEK293 cell membranes to IC50 for displacement of [3H]PGF2alpha from full-length recombinant human FP receptor expressed in HEK293 cell membranes
[29] = species: Homo sapiens; test: Selectivity ratio of IC50 for displacement of [3H]PGD2 from full-length recombinant human DP1 receptor expressed in Chem-1 cell membranes to IC50 for displacement of [3H]PGF2alpha from full-length recombinant human FP receptor expressed in HEK293 cell membranes
[30] = species: Homo sapiens; test: Selectivity ratio of IC50 for displacement of [3H]prostaglandin E2 from full-length recombinant human EP3 receptor expressed in HEK293 cell membranes to IC50 for displacement of [3H]PGF2alpha from full-length recombinant human FP receptor expressed in HEK293 cell membranes
[31] = species: Homo sapiens; test: Selectivity ratio of IC50 for displacement of [3H]prostaglandin E2 from full-length recombinant human EP2 receptor expressed in HEK293 cell membranes to IC50 for displacement of [3H]PGF2alpha from full-length recombinant human FP receptor expressed in HEK293 cell membranes
[32] = species: Homo sapiens; test: Selectivity ratio of IC50 for displacement of [3H]prostaglandin E2 from full-length recombinant human EP1 receptor expressed in HEK293 cell membranes to IC50 for displacement of [3H]PGF2alpha from full-length recombinant human FP receptor expressed in HEK293 cell membranes
[33] = system: Mus musculus; test: Antifibrotic activity in silica-induced pulmonary fibrosis C57Bl6J mouse model assessed as decrease in lung osteopontin production at 3 to 30 mg/kg, po bid for 9 days measured post-last dose by Bio-Rad analysis; assay type: functional, organism-based; settings: dose mg/kg 3-30, time 9.0 day
[34] = system: Mus musculus; test: Antifibrotic activity in silica-induced pulmonary fibrosis C57Bl6J mouse model assessed as decrease in lung IL1beta production at 3 to 30 mg/kg, po bid for 9 days measured post-last dose by Bio-Rad analysis; assay type: functional, organism-based; settings: dose mg/kg 3-30, time 9.0 day
[35] = system: Mus musculus; test: Antifibrotic activity in silica-induced pulmonary fibrosis C57Bl6J mouse model assessed as decrease in lung MCP1 production at 3 to 30 mg/kg, po bid for 9 days measured post-last dose by Bio-Rad analysis; assay type: functional, organism-based; settings: dose mg/kg 3-30, time 9.0 day
[36] = target: Prostaglandin F2-alpha receptor (Mus musculus) (UniProt P43117); test: Antagonist activity at FPR in mouse NIH3T3 cells co-transfected with mtClytin assessed as inhibition of PGF2alpha-induced calcium flux preincubated for 5 mins followed by PGF2alpha stimulation and measured for 60 secs by calcium dye based fluorescence assay; assay type: functional, cell-based; settings: filed as antagonist, time 6.0 min
[37] = Toxicity in Wistar rat up to 200 mg/kg/day, po administered for 14 days; assay type: organism-based; settings: in vivo, 336 h, time 14 day
[38] = Induction of CYP3A4 mRNA expression in human hepatocytes supplemented with fresh medium containing compounds daily for 2 days measured 24 hrs post last dose by qRT-PCR analysis; settings: 72 h
[39] = Maximum oral bioavailability in rat hepatocytes based well stirred liver model at 1 uM measured after 2 to 90 mins by LC-MS/MS analysis; assay type: ADME, Hepatocyte; settings: time 2-90 min, read-out: Fmax

Chain of Cytochrome P450 3A4 (P08684 whole entry): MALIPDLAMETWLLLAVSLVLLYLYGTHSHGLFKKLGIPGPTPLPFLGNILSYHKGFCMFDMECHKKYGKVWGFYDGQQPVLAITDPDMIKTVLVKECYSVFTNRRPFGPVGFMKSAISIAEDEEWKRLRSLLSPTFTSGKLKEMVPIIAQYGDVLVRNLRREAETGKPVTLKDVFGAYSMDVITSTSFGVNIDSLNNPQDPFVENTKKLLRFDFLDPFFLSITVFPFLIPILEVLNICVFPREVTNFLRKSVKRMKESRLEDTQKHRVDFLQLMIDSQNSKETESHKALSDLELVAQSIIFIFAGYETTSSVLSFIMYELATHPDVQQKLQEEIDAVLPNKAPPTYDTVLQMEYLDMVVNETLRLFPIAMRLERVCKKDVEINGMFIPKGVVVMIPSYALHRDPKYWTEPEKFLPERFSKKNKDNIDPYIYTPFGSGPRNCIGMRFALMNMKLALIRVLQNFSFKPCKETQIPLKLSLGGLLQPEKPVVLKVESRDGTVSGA
T1 sequence (P43088 whole entry): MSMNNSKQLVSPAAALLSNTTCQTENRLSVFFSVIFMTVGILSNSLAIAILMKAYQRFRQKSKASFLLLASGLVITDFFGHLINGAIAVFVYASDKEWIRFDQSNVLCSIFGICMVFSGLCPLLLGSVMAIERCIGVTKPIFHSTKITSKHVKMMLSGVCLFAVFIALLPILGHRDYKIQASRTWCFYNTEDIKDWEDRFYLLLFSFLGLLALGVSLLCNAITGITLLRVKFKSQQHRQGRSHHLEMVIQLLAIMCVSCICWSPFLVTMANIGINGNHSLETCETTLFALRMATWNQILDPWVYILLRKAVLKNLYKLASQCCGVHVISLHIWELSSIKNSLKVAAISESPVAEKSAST
Chain of Cytochrome P450 1A2 (P05177 whole entry): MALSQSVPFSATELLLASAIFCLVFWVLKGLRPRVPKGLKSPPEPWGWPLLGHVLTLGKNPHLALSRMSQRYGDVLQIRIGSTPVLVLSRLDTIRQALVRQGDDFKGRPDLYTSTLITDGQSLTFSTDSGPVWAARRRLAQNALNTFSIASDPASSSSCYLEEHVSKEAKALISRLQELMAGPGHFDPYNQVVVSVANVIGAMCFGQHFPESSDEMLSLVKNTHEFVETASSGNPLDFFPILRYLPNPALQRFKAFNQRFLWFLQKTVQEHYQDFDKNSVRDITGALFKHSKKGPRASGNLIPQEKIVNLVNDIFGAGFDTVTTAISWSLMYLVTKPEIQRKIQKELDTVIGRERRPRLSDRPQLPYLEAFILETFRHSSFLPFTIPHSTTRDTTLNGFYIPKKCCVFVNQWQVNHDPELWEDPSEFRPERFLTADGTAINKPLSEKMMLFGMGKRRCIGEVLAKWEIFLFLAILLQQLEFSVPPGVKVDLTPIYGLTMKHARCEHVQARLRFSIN
Chain of Cytochrome P450 2C8 (P10632 whole entry): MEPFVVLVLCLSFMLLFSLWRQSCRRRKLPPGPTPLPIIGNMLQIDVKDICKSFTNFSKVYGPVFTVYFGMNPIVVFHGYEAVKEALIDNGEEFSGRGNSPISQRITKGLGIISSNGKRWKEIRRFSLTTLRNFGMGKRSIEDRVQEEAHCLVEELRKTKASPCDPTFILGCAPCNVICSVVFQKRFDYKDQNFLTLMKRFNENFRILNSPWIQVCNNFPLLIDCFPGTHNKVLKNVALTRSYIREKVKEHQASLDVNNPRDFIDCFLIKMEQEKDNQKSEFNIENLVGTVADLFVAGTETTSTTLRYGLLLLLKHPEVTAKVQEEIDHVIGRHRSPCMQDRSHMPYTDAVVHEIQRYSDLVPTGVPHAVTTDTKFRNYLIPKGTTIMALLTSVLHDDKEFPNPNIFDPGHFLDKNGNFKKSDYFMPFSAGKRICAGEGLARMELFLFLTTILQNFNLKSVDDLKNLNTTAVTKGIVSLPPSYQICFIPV
Chain of Prostaglandin E2 receptor EP4 subtype (P35408 whole entry): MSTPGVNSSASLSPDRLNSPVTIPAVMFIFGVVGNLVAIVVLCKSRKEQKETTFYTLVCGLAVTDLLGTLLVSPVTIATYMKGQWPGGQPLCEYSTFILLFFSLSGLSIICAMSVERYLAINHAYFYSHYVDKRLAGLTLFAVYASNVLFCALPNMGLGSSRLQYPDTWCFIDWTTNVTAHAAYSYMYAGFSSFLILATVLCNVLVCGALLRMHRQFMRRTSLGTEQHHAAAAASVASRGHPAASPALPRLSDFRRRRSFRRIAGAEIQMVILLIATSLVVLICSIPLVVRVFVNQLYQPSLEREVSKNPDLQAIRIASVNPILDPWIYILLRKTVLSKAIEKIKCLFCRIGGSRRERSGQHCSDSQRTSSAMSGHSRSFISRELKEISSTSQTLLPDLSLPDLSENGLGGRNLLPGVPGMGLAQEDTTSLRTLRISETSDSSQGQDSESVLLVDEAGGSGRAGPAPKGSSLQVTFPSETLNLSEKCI
Chain of Prostaglandin E2 receptor EP3 subtype (Homo sapiens) (P43115 whole entry): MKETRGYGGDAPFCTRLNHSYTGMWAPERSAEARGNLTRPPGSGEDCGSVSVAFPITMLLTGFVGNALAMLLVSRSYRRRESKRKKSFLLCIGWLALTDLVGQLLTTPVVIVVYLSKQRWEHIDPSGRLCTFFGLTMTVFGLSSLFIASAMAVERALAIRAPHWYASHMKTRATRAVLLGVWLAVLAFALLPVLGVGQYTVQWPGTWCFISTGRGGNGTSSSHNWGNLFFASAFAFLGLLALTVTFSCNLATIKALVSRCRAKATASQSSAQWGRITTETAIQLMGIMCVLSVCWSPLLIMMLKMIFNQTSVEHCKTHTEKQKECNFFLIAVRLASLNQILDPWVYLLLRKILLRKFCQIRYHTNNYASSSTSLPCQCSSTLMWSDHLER
Chain of Prostaglandin E2 receptor EP1 subtype (Homo sapiens) (P34995 whole entry): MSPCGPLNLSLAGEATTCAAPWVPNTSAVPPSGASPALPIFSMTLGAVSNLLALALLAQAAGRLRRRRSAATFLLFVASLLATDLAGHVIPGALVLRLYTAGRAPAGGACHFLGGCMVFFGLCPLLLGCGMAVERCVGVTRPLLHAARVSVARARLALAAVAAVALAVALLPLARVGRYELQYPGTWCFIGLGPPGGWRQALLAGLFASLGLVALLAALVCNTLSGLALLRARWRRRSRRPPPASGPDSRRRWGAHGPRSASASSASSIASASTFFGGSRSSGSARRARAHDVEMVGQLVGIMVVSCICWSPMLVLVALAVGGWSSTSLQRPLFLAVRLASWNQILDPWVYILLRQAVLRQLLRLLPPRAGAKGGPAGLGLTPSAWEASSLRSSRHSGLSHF
Chain of Prostaglandin E2 receptor EP2 subtype (P43116 whole entry): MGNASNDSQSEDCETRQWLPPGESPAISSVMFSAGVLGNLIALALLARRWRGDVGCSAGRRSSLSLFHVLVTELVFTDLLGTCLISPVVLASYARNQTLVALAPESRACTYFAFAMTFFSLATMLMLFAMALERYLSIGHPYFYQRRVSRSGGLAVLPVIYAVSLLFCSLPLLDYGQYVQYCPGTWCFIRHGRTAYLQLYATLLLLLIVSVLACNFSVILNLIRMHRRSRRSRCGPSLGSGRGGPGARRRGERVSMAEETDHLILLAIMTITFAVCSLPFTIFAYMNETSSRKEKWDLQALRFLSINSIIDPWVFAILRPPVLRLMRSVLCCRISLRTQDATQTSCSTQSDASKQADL
Chain of Prostacyclin receptor (P43119 whole entry): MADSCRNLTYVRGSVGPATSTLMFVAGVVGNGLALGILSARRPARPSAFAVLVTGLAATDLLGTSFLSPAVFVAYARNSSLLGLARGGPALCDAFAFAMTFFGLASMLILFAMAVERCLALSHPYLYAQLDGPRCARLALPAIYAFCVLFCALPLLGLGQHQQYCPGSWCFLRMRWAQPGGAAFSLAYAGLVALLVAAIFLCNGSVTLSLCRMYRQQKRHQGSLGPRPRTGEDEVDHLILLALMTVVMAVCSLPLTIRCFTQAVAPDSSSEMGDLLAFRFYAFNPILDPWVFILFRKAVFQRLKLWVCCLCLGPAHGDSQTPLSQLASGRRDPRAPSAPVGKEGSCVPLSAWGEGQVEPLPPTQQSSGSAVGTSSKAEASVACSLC
Chain of Cytochrome P450 2D6 (P10635 whole entry): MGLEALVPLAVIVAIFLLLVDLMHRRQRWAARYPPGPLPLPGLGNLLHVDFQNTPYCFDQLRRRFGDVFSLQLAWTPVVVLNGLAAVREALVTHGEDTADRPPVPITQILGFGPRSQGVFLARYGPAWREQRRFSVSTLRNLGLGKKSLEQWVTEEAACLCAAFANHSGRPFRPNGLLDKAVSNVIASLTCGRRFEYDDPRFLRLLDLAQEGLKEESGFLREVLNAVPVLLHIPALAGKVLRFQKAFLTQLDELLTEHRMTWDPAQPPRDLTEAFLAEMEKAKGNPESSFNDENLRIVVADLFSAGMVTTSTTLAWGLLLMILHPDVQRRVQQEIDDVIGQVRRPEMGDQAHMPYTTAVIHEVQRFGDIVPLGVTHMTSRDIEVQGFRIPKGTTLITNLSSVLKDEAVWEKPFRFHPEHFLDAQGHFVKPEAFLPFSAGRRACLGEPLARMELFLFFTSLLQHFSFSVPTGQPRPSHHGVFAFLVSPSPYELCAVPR
Chain of Prostaglandin F2-alpha receptor (Mus musculus) (P43117 whole entry): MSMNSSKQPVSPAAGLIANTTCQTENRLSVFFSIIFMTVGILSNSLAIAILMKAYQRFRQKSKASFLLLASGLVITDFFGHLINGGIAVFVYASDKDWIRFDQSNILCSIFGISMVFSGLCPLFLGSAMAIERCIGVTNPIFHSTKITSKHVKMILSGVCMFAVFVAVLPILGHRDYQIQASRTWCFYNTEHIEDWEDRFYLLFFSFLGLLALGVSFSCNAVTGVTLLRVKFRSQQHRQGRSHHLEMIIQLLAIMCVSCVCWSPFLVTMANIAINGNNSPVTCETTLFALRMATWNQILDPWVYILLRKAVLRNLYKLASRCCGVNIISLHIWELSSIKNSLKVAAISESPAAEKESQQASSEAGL

Cc1c(N2CCCC2)nc2ccc(Br)cc2c1C(=O)NC[C@H](CCC(=O)O)c1ccccc1Cl.Cl
solubility [1]: 2300 µg/mL

Cc1c(-c2ccccc2)nc2ccc(Br)cc2c1C(=O)Nc1ccc(C(=O)O)cc1F.NC(CO)(CO)CO
bioavailability [2]: 37%

Cc1c(-c2ccccc2)nc2ccc(Br)cc2c1C(=O)Nc1ccc(-c2nnn[nH]2)cc1F
clearance [3]: 50 mL/min/kg
efflux ratio at 2 h [4]: 10
Ratio IC50 [5]: 50
IC50 [6]: 5.2 nM

Cc1c(-c2ccccc2)nc2ccc(Br)cc2c1C(=O)Nc1ccc(C(=O)O)cc1F
solubility [7]: 1 µg/mL (≈ 2.09 µM)
half-life [8]: 3.1 h
bioavailability [9]: 100%
clearance [10]: 16.7 mL/min/kg
IC50 [11]: > 20000 nM
fraction unbound at 6 h [12]: 0.016
logD [13]: 1.9
IC50 [6]: 27 nM

Cc1c(-c2ccccc2)nc2ccc(Br)cc2c1C(=O)Nc1ccc(C(=O)[O-])cc1F.[Na+]
bioavailability [14]: 29%

Cc1c(-c2ccccc2)nc2ccc(Br)cc2c1C(=O)NC12CCC(C(=O)O)(CC1)CC2.NC(CO)(CO)CO
bioavailability [2]: 79%

Cc1c(-c2ccccc2)nc2ccc(Br)cc2c1C(=O)NC12CCC(C(=O)[O-])(CC1)CC2.[Na+]
bioavailability [14]: 80%

Cc1c(-c2ccccc2)nc2ccc(Br)cc2c1C(=O)Nc1ccc(C(N)=O)cc1F
efflux ratio at 2 h [4]: 18
CLhep predicted at 1 µM [15]: 58.3 mL/min/kg
Ratio IC50 [5]: 16

Cc1c(-c2ccccc2)nc2ccc(Br)cc2c1C(=O)NC12CCC(C(=O)O)(CC1)CC2
IC50 [16]: > 10000 nM
IC50 [17]: > 10000 nM
IC50 [18]: > 10000 nM
IC50 [19]: > 10000 nM
half-life [8]: 15 h
bioavailability [9]: 100%
clearance [3]: 0.5 mL/min/kg
IC50 [11]: > 10000 nM
bioavailability [20]: 90%

Cc1c(-c2cccs2)nc2ccc(Br)cc2c1C(=O)NCCc1cccnc1
inhibition [21]: inactive
inhibition [22]: inactive
inhibition [23]: inactive
inhibition [24]: inactive
IC50 [25]: 4400 nM
inhibition [26]: inactive
IC50 [27]: 1400 nM
Ratio IC50 [28]: > 3.1
Ratio IC50 [29]: > 3.1
Ratio IC50 [5]: > 3.1
Ratio IC50 [30]: > 3.1
Ratio IC50 [31]: > 3.1
Ratio IC50 [32]: > 3.1
IC50 [6]: 1800 nM

Cc1c(N2CCCC2)nc2ccc(Br)cc2c1C(=O)NC[C@H](CCC(=O)O)c1ccccc1Cl
Activity [33]: Active
Activity [34]: Active
Activity [35]: Active
fIC50 [36]: 5.2 nM

Cc1c(-c2ccccc2)nc2ccc(Br)cc2c1C(=O)NCC(CC(=O)O)c1ccccc1Cl (single isomer, unassigned; (+))
half-life [8]: 2.6 h
bioavailability [9]: 90%
CL ([10]; 0.25 h): 43.3 mL/min/kg
IC50 [11]: > 20000 nM
logD [13]: 2
Activity [37]: Non-Toxic
NOAEL [38]: 6 µM

COc1ccccc1C(C)CNC(=O)c1c(C)c(-c2ccccc2)nc2ccc(Br)cc12 (single isomer, unassigned; (-))
Fh at 1 µM [39]: 6%
CLhep predicted at 1 µM [15]: 65 mL/min/kg
clearance [10]: 63.3 mL/min/kg
fraction unbound at 6 h [12]: < 0.01
IC50 [27]: < 1 nM
IC50 [6]: 14 nM

Cc1c(-c2ccccc2)nc2ccc(Br)cc2c1C(=O)NCC(C(=O)O)c1ccccc1Cl (stereo in doubt; 31)
Fh at 1 µM [39]: 78%
CLhep predicted at 1 µM [15]: 15 mL/min/kg
clearance [10]: 55 mL/min/kg
